The values below come from the METLIN SMRT retention time set (Domingo-Almenara et al. 2019).

The structures appear in SMILES notation.

A short description of this data set: gradient 5% acetonitrile 3 min, to 50% in 2 min, to 85% in 15 min, held 3 min, 100 µL/min. Conditions: column: Zorbax Extend-C18 2.1 x 50 mm; eluents: water / acetonitrile, 0.1% formic acid. In a few lines:
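In both positive and negative ionization mode, a quadrupole time-of-flight mass spectrometer coupled to HPLC analyzed pure standards run in mixtures of ~100 molecules. The Zorbax Extend-C18 column (2.1 × 50 mm, 1.8 μm) was operated at 100 μL/min with water and acetonitrile, each containing 0.1% formic acid. The dead volume was 40 μL and the dwell volume 900 μL. Retention time came from adduct peaks that were computationally picked and individually inspected by hand.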
Turning to `COc1ccc(Cl)cc1NC(=O)CSc1nnc2c3cc(-c4ccc(C)c(C)c4)nn3ccn12`, the RP-LC retention time amounted to 1130 s. Consider `Cc1nc(C2CN(S(=O)(=O)c3c(C)c(C)cc(C)c3C)CC23CCOCC3)no1` (centres undefined), for which the RP-LC retention time is 1020 s. Compound `Clc1cccc(-c2nc(-c3ccc4nncn4c3)no2)c1` gave an RP-LC retention time of 921 s. To `CCNC(=O)c1nc(-c2ccncc2)cs1` belongs 574 s; to `COc1ccc2c(c1)c(CN1C[C@@H](CO)[C@H](c3nc(C)no3)C1)cn2C`, 555 s. The compound `O=C(COc1ccc(F)cc1)N1CCCC1c1nc(-c2ccc(F)cc2F)no1` (centres undefined) gave an RP-LC retention time of 950 s. Consider `CN1CCC(C2CCN(S(=O)(=O)c3ccccc3Cl)C2)CC1` (centres undefined), for which the RP-LC retention time was determined as 710 s. With `O=C(NCc1ccco1)C1(c2ccc(F)cc2)CC1` the figure was 788 s; with `COc1ccc(-c2nc3cnccn3c2NCCC(=O)Nc2ccc3c(c2)OCO3)cc1`, 673 s. The compound `CCOC(=O)C1=C(CN(C)Cc2ccccc2)NC(=O)NC1c1cccs1` (centres undefined) gave an RP-LC retention time of 642 s. `CCC1CCCCN1Cc1nc(Cn2ccn3nc(-c4ccc(C)c(C)c4)cc3c2=O)no1` (centres undefined) showed an RP-LC retention time of 765 s.

In the case of `COc1cccc(CN2CCCn3nc(-c4cccc(OC)c4)cc3C2)c1`, the RP-LC retention time stood at 561 s. The compound `CC(C)n1nc(CNC(=O)CNC(=O)c2ccccc2)c2ccccc21` had an RP-LC retention time of 740 s. With `Cc1nn(-c2ccc(SCC(=O)NC(C)C)nn2)c(C)c1C` the figure was 776 s; with `COc1ccc(-n2c(=O)c(C(=O)Nc3ccc(F)c(F)c3)c(O)c3cccnc32)cc1`, 983 s. On to `CCOc1ccccc1NC(=O)CSc1ccc(N2CCCC(C(=O)NC3CC3)C2)nn1` (centres undefined), for which the RP-LC retention time was 705 s. For `CN(CC1CCOCC1)C(=O)Nc1cccc(Br)c1`, the RP-LC retention time was found to be 784 s.

Take `Cc1noc(-c2cccnc2N2CCN(C(c3ccccc3)c3ccccc3)CC2)n1`: the RP-LC retention time amounted to 742 s.

For `CCOc1ccc(C2c3[nH]c4ccccc4c3CCN2C(=O)CCC2CCCC2)cc1` (centres undefined), the RP-LC retention time turned out to be 1460 s. The compound `Cc1cccc(C)c1NC(=O)Cn1nc2nc(N3CCCC(C)C3)ccn2c1=O` (centres undefined) gave an RP-LC retention time of 787 s. With `Cc1ccnc(NC(=O)C2CCCN(S(=O)(=O)c3cc(-c4noc(C5CCC5)n4)cs3)C2)c1` (centres undefined) the figure was 891 s. To `Cc1ccc(-c2nc3cnccn3c2Nc2ccc3c(c2)OCCO3)cc1` belongs 841 s. As for `O=C(NCc1ccccc1)N1CCCC(Cn2cnc3cccnc32)C1` (centres undefined), the RP-LC retention time turned out to be 618 s. The compound `Cc1cc(NC(=O)N2CCC(n3cnc4cccnc43)CC2)ccc1Br` showed an RP-LC retention time of 684 s. With `Cc1nc(-c2cn(C(C)C)c3ncccc23)sc1C(=O)N1CCCCC1`, the RP-LC retention time is 958 s. `CC(C)CCNC(=O)c1ccc2c(c1)N(C)C(=O)C1CCCCN21` (centres undefined) gave an RP-LC retention time of 885 s. In the case of `O=C(NCCc1nc(-c2ccccc2)cs1)C1CC(=O)N(c2n[nH]c3ccccc23)C1` (centres undefined), the RP-LC retention time was determined as 740 s. Compound `COc1cccc(S(=O)(=O)N2CCC(c3cc(N)on3)CC2)c1` returned an RP-LC retention time of 756 s. For `Cc1ccc(NC(=O)Cn2c(=O)c(CCC(=O)NC3CCCC3)nc3ccccc32)cc1C`, the RP-LC retention time is 863 s. As to `CC(C)CCNC(=O)N1CCN(Cc2nc3cccnc3n2-c2ccc(F)cc2)CC1`, the RP-LC retention time worked out at 667 s.

Consider `Cc1ccc(-c2nc3cnccn3c2Nc2ccc(Cl)cc2)cc1`, for which the RP-LC retention time is 1000 s. To `O=C(C1CC(=O)N(c2n[nH]c3ccccc23)C1)N1CCC(c2noc3cc(F)ccc23)CC1` (centres undefined) belongs 766 s. As for `COc1cccc(-c2noc(Cc3nnc(-c4cc(F)cc(F)c4)o3)n2)c1OC`, the RP-LC retention time is 968 s. As for `CCCN(CCC)S(=O)(=O)c1ccc(C(=O)Nc2nc(-c3ccc(F)cc3)cs2)cc1`, the RP-LC retention time turned out to be 1240 s. In turn, `O=C(NCc1cccs1)c1nnc(-c2ccc(S(=O)(=O)N3CCOCC3)cc2)o1` came in with an RP-LC retention time of 804 s. With `COc1ccc(CCC(=O)N2CCCC(C)(C(=O)NCc3ccc(C)cc3)C2)cc1` (centres undefined) the figure was 932 s; with `COc1cc(Nc2nc3ccccc3nc2NS(=O)(=O)c2ccc(NC(=O)c3ccc(C)c(OC)c3)cc2)cc(OC)c1`, 1240 s.

In turn, `CCc1ccc(S(=O)(=O)N2CCc3c(c(-c4nnc(-c5ccccc5)o4)nn3C)C2)cc1` had an RP-LC retention time of 1030 s. As for `O=C(Cn1nc2n(c1=O)CCCC2)Nc1cccc(C(F)(F)F)c1`, the RP-LC retention time was found to be 705 s. Take `COc1cccc(CN2CCn3c(nnc3[C@@H]3C[C@@H](O)CN3C)C2)c1`: the RP-LC retention time was 574 s. Consider `CCOc1ccc(C2Cn3nnc(-c4nc(-c5ccccc5C)no4)c3CO2)cc1` (centres undefined), for which the RP-LC retention time was found to be 1270 s.

`Cc1cccc2c(C(=O)N3CCCC3)cc(N(C)C)nc12`: the RP-LC retention time came to 605 s.

Compound `CC(C)NC(=O)C(=O)c1c(-c2ccccc2)[nH]c2ccccc12` yielded an RP-LC retention time of 776 s. `O=C(Cn1nc(C(=O)N2CCCC2)c2ccccc21)NCc1ccc(F)cc1` showed an RP-LC retention time of 780 s. As for `CC(C)OCCCNC(=O)C1CCCN(c2nc3ccccc3n(Cc3ccccc3)c2=O)C1` (centres undefined), the RP-LC retention time came out at 1070 s. With `O=C(NCCCN1CCCCC1)c1ccc(-c2ccnc(N3CCCC3)n2)cc1`, the RP-LC retention time is 592 s. In turn, `Cc1nnc(N2CCC(C(=O)N3CCOCC3)CC2)c2nn(-c3ccc(Cl)cc3)c(C)c12` came in with an RP-LC retention time of 669 s.

`Cc1ccc(CNc2cc(-n3ccnc3)ncn2)cc1`: the RP-LC retention time was 648 s. The compound `Cc1cc(C)cc(C(=O)N2CCCC(C(=O)NCCc3ccco3)C2)c1` (centres undefined) displayed an RP-LC retention time of 836 s. `CNC(=O)N1CCCC(c2cccc(C(=O)NC3CCCCCC3)c2)C1` (centres undefined) returned an RP-LC retention time of 820 s.

Turning to `CCN1CCCn2nc(C3CCN(C(=O)c4cncc(Br)c4)CC3)cc2C1=O`, the RP-LC retention time was determined as 659 s. `COC(=O)c1ncn2c1C(=O)N(c1ccc(C)c(C)c1)C(C)(C(=O)NC1CCCC1)C2` (centres undefined) yielded an RP-LC retention time of 750 s. Compound `COc1ccccc1C(=O)NC1(C(F)(F)F)C(=O)N(CC2CCCO2)C(C)=C1C(C)=O` (centres undefined) gave an RP-LC retention time of 774 s. `CCOC(=O)c1c(-c2cccnc2)n(C)c2cc(-c3cccnc3)c(OC)cc12` displayed an RP-LC retention time of 634 s. Compound `COCCNC(=O)C1CCN(S(=O)(=O)c2cc(-c3noc(C)n3)cs2)CC1` returned an RP-LC retention time of 679 s. To `O=C(c1nnc(-c2ccc(S(=O)(=O)N3CCCC3)cc2)o1)N1CCCCC1` belongs 847 s. In turn, `Cc1ccc(Cn2cc(-c3ccncc3)cc2C(=O)NCC(C)C)cc1` yielded an RP-LC retention time of 720 s.

Consider `Cc1ccc(-n2nnnc2CNC(=O)c2ccc([N+](=O)[O-])o2)cc1C`, for which the RP-LC retention time was determined as 745 s.

In turn, `O=C(C1=CN(c2ccc(F)c(F)c2)c2ccccc2S1(=O)=O)N1CCOCC1` gave an RP-LC retention time of 751 s. To `CCOc1ccc(-n2c(N3CCSC3)nc3cc(C(=O)OC)ccc3c2=O)cc1` belongs 1120 s; to `CCOc1ccccc1NC(=O)NCC(c1cccnc1)c1c[nH]c2ccccc12` (centres undefined), 684 s; to `CC(C)c1ccc(-n2ncc3c(=O)n(Cc4nc(-c5ccc(Cl)cc5)no4)cnc32)cc1`, 1320 s. `O=C(Nc1nccs1)c1cc(N2C(=O)C3C4CCC(C4)C3C2=O)ccc1Cl` (centres undefined) showed an RP-LC retention time of 742 s.

Turning to `O=C(NCc1ccc(Br)cc1)C1CCCN(c2cnc3nccnc3c2)C1` (centres undefined), the RP-LC retention time stood at 755 s. With `Cc1nn2c(CNC(=O)c3cccs3)c(-c3ccccc3)nc2s1`, the RP-LC retention time was 797 s. Turning to `CS(=O)(=O)Nc1ccc([N+](=O)[O-])cc1Oc1ccccc1`, the RP-LC retention time came out at 967 s. Compound `COc1ccc(NC(=O)C2CCN(S(C)(=O)=O)c3cc(C)ccc3O2)cc1` (centres undefined) had an RP-LC retention time of 872 s. In the case of `COCCCNC(=O)C1CCCN(c2ncc(-c3ccc(F)cc3)cn2)C1` (centres undefined), the RP-LC retention time is 824 s.

As for `COc1ccc(C)cc1NC(=O)C(=O)NCCc1csc(-c2ccc(Cl)cc2)n1`, the RP-LC retention time was 1280 s. With `Cc1sc2ccn(CC(C)C)c(=O)c2c1C(=O)NCc1ccc(F)cc1` the figure was 917 s. With `C=CCN(Cc1nc(-c2cccc(C)c2)no1)C(=O)Nc1ccccc1C`, the RP-LC retention time was 1080 s. The compound `Cn1ncc2c(Nc3ccc([N+](=O)[O-])cc3)nc(Cl)nc21` had an RP-LC retention time of 963 s.

Turning to `COc1ccc(S(=O)(=O)N2CCCC(C(=O)Nc3c(F)cccc3F)C2)cc1OC` (centres undefined), the RP-LC retention time worked out at 818 s. With `Cc1ccccc1NC(=O)NCC1CCOCC1`, the RP-LC retention time turned out to be 658 s.

The compound `CN(C(=O)CC(=O)Nc1ccc2nc3n(c(=O)c2c1)CCCCC3)c1ccccc1F` had an RP-LC retention time of 682 s. The compound `O=C1CC(c2noc(CCc3ccccc3)n2)CN1c1ccc(F)cc1` (centres undefined) yielded an RP-LC retention time of 966 s. Take `Cc1ccc(-c2nc(C)cc(SCC(=O)Nc3cc(C)ccc3C)n2)cc1`: the RP-LC retention time turned out to be 1210 s. `COc1ccc(NC(=O)c2ccc(-c3cncnc3)nc2)cc1Cl` came in with an RP-LC retention time of 735 s.

Regarding `O=C(NC1CCCC1)c1ccc2ccnc(N3CCN(c4ccc(F)cc4)CC3)c2c1`, the RP-LC retention time came out at 803 s.
